Consider 2 compounds from US6407288B1, “Naphthylsalicylanilides as antimicrobial and antiinflammatory agents” (The Research Foundation of State University of New York, priority 2000, dated 2002).

What is called MIC is the lowest concentration that inhibits growth of the organism. The low end stands for greater potency, the high end for weaker potency.

The test system of the assay is Str. pyo. In words: Mean Streptococcus MIC. The class given is cell-based. The settings on record: Streptococcus; Table 5, mean. An outline of the steps: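 Modified NCCLS broth microdilution in duplicate: 10 μL inoculum from cultures diluted to about 1×10^8 CFU/mL, drug 50 to 0.05 μg/assay diluted from DMSO stock. Full-strength BHI for aerobes, supplemented half-strength BHI under 5% CO2/10% H2/N2 for anaerobes, 24–48 h; MIC as lowest concentration without visible growth.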

Molecules are shown by their SMILES. ≈ marks a conversion by molar mass, not a printed value.

As to `N#Cc1cccc(NC(=O)c2cc(C(=O)c3cccc4ccccc34)ccc2O)c1` [NA1mC], the minimal inhibitory concentration (MIC) was determined as 16.7 µg/mL (≈ 42.5 µM). Next, `O=C(Nc1cccc(C(F)(F)F)c1)c1cc(C(=O)c2cccc3ccccc23)ccc1O` [NA1mF]: 1 µg/mL (≈ 2.3 µM).
